Drawing on PubChem BioAssay (NCI), this text covers GI50 and TGI for eight compounds.

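Five compound concentrations were applied to cells in 96-well plates for 48 hours; endpoints were derived by simple linear interpolation of the resulting dose-response curve. GI50 marks 50% less growth. The concentration for full growth arrest is given as TGI.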

Holding throughout (assay): NCI tumour cell line growth inhibition, 48 h
In assay [1] the test system is PC-3 prostate.
Assay [2] relates to HS 578T breast.
For assay [3], the system named is MDA-MB-231 breast.
In assay [4] the test system is SNB-75 CNS.
The subject of assay [5] is CAKI-1 renal.
For assay [6], the system named is U251 CNS.
For assay [7], the system named is K-562 leukemia.
The subject of assay [8] is T-47D breast.
The subject of assay [9] is SK-MEL-2 melanoma.
The test system of assay [10] is SK-MEL-28 melanoma.

With `CCCc1cc(=O)n2c(C(=O)Nc3ccccc3OC)c(C(=O)Nc3ccc(F)cc3)sc2n1`, the GI50 in assay [1] was 3.61 µM; in [2] it was 6.27 µM; in assay [3], 3.29 µM; in assay [4] it was 8.72 µM; in assay [5], 35.3 µM; in [6], 5.88 µM. In addition, the GI50 in assay [7] is 4.64 µM; in assay [8], 71.8 µM; in [9] it was 7.53 µM; in assay [10], 22 µM. Also, the TGI in assay [1] is 12.9 µM; in assay [2] it was 25.6 µM; in assay [3] it was 11.2 µM; in assay [4], 35 µM; in assay [5] it was above 160 µM; in [6], 21.5 µM. Besides, the TGI in [7] was 33.1 µM; in [8], above 160 µM; in [9], 29.6 µM; in assay [10], 61.8 µM.
Consider `COc1ccc2c(c1)C(C)Cc1c(Cl)nc(C)nc1N2C` (stereo not drawn), for which the GI50 in assay [1] is 2.99 µM; in assay [2], 3.98 µM; in assay [3] it was 4.34 µM; in [4] it was 1.94 µM; in [5] it was 2.56 µM; in [6], 3.15 µM. Also, the GI50 is 0.713 µM in assay [7], 3.43 µM in assay [8], 10.6 µM in [9] and 3.4 µM in assay [10]. Also, the TGI is above 100 µM in assay [1]; 64.4 µM in assay [2]; 34.9 µM in assay [3]; 9.04 µM in [4]; above 100 µM in assay [5]; 15.9 µM in assay [6]. Further, the TGI in assay [7] is above 100 µM; in assay [8] it was above 100 µM; in assay [9] it was 29.5 µM; in assay [10], 38.5 µM.
For `CSC1(SC2=NCCN2)SC2(NCCN2)S1`, the TGI in assay [1] was found to be 34.3 µM; in [2], 69.1 µM; in assay [3] it was 38.6 µM; in assay [4], 32.2 µM; in [5] it was 27 µM; in [6] it was 32.8 µM. The TGI in assay [7] was 81.2 µM; in assay [8] it was 5.91 µM; in assay [9] it was 39.4 µM; in assay [10], 40.1 µM.
Consider `C/C=C/[C@@H]1OC(=O)C2=C[C@@H](O)[C@@H](/C=C/C)O[C@H]21`, for which the GI50 is 13.9 µM in assay [1]; 17.1 µM in assay [2]; 12.9 µM in assay [3]; 14.6 µM in assay [4]; 1.71 µM in [5]; 14.6 µM in assay [6]. The GI50 in assay [7] was 1.84 µM; in assay [8] it was 3.3 µM; in assay [9], 23.5 µM; in [10] it was 6.38 µM. Besides, the TGI was determined as 28.2 µM in [1]; 41.2 µM in assay [2]; 29.3 µM in assay [3]; 32.4 µM in [4]; 3.81 µM in assay [5]; 35.6 µM in assay [6]. For the same compound, the TGI was 13 µM in assay [8], above 58.6 µM in [9] and 12.6 µM in assay [10].
As for `COc1cc(C2CC(c3ccc(N(C)C)cc3)=NN2C(C)=O)cc(OC)c1OC` (stereo not drawn), the GI50 was 1.42 µM in assay [1]; 0.441 µM in [2]; 4.74 µM in [3]; 1.43 µM in [4]; 0.801 µM in assay [5]; 1.65 µM in [6]. Further, the GI50 in assay [7] was 1.74 µM; in assay [8], above 24.7 µM; in [9], 12.9 µM; in assay [10] it was 21 µM. The TGI in assay [1] was above 100 µM; in assay [2] it was 3.03 µM; in assay [3], above 100 µM; in assay [4], above 100 µM; in assay [5] it was above 100 µM; in [6] it was above 100 µM. The TGI in assay [7], in assay [8], in assay [9] and in assay [10] was above 100 µM each time.
On to `COc1cc2c3c(n(C)c(=O)c2cc1OC)-c1cc2c(cc1/C3=C\C(N)CN)OCO2` (stereo not drawn), for which the GI50 in [1] is 5.27 µM; in [2], 4.2 µM; in assay [3], 4.15 µM; in assay [4], 3.6 µM; in assay [5], 2.27 µM; in [6], 0.371 µM. Moreover, the GI50 is 3.74 µM in [7], 1.94 µM in [8], 4.71 µM in [9] and 4.45 µM in [10]. Further, the TGI in assay [1] is 20.5 µM; in [2] it was 41.4 µM; in assay [3], above 53.3 µM; in assay [4], above 31.3 µM; in assay [5] it was 10.4 µM; in assay [6] it was 2.42 µM. The TGI in [7] was above 71.5 µM; in [8], 10.3 µM; in [9] it was above 22.8 µM; in assay [10], 41.8 µM.
In the case of `CCN1C(=O)N(CC)C2C1NN=c1s/c(=C\c3cc4ccccc4[nH]3)c(=O)n12` (stereo not drawn), the GI50 in assay [1] is below 0.015 µM; in [2], below 0.0203 µM; in [3] it was 0.0118 µM; in [4], below 0.0149 µM; in assay [5] it was below 0.0169 µM; in [6] it was 0.0383 µM. The GI50 in assay [7] was below 0.01 µM; in assay [8], 0.0348 µM; in [10], 2.77 µM. The TGI in assay [1] was above 100 µM; in assay [2], 9.1 µM; in [3] it was 27 µM; in assay [4] it was 0.641 µM; in [5] it was 11.6 µM; in assay [6], 17.4 µM. Further, the TGI in assay [7] was above 100 µM; in assay [8], 5.94 µM; in assay [9], 33.9 µM; in [10], above 83 µM.
As to `CCCOC(=O)CCn1c(SC)nc2[nH]cc(-c3ccccc3)c2c1=O`, the GI50 in [1] was 14.6 µM; in [2] it was 28.1 µM; in [3], 38.3 µM; in assay [4] it was 13.4 µM; in assay [5] it was 19.6 µM; in [6], 12.8 µM. Further, the GI50 in assay [7] is 3.95 µM; in [8], 11.7 µM; in assay [9], 25.5 µM; in assay [10], 20.3 µM. In addition, the TGI in [1] is 50.1 µM; in assay [2] it was above 100 µM; in [3], above 100 µM; in assay [4], 57.6 µM; in assay [5] it was 54 µM; in [6], 87.4 µM. In addition, the TGI is 43.1 µM in assay [7], 62 µM in [8], 63.5 µM in assay [9] and 58.8 µM in [10].
